Data from US8158811B2, “Unsaturated fatty hydroxy acid derivatives and the dermocosmetologic use thereof” (Pierre Fabre Dermo-Cosmetique, priority 2005, dated 2012).

How the values were obtained:
Interleukin 8 = assay: release of Interleukin 8 by keratinocytes NHK stimulated with PMA + calcium ionophore A23187 (ELISA); format: cell-based, human; settings: 3 μg/ml, keratinocytes, PMA + A23187 6 hours
Experimental: In this study, carried out using 96 well plates, we evaluated the activity of hydroxyl alkine acids on the production of Interleukin 8 produced in the keratinocytes by phorbol ester PMA and calcium ionophore A23187.
A suspension of keratinocytes in supplemented KSFM was divided between 96 well plates (3.10^4 cells/wells) and incubated for 16 hours at 37° C. under an atmosphere of 5% CO2. The keratinocytes were then rinsed with PBS in order to eliminate non adhering cells then exposed to the products to be tested included in non supplemented KSFM (which could interfere with the assay).
The concentration tested in culture was 3 μg/ml. This was retained after a preliminary test to evaluate cytotoxicity (neutral red) and is not cytotoxic.
3 wells were used for each treatment. Cells were preincubated for 60 minutes with the products to be tested then stimulated, in parallel to negative controls without stimulant: Phorbol Myristate Acetate (PMA) 1 μm+Calcium ionophore (A23187) 0.1 μm.
Incubation for 6 hours at 37° C. in a humid air atmosphere containing 5% CO2.
The culture medium for each of the wells was recovered, centrifuged at 3000 rpm and stored at −80° C.
Cytokine assay: IL8 was assayed using the ELISA kit immunoenzyme method (immunotech).
The results are given as percentage activity/stimulated control.
The compounds according to the invention were evaluated in terms of anti-inflammatory activity on the release of Interleukin 8 by human keratinocytes NHK stimulated by phorbol ester PMA+calcium ionophore A23187.

prostaglandin 6KF1α = assay: production of prostaglandin 6KF1α by keratinocytes stimulated with calcium ionophore A23187 (ELISA); format: cell-based; settings: 3 μg/ml, A23187 1 μm 5 hours
Experimental: A suspension of keratinocytes in DMEM 10% foetal calf serum was divided into 6 well plates (1.2. 106cells/wells) and incubated for 16 hours at 37° C. in a 5% CO2 atmosphere. The keratinocytes were then rinsed with PBS in order to eliminate non adhering cells then exposed to the products to be tested included in DMEM without foetal calf serum (which could interfere with the assay).
The concentration tested in culture was 3 μg/ml. This was retained as the test concentration after a preliminary evaluation test for cytotoxicity (neutral red) and is not cytotoxic.
For each treatment, three wells were tested. Cells were pre-incubated for 60 minutes with the products to be tested then a stimulating agent was added to stimulate the arachidonic acid cascade (calcium ionophore) which was added for 5 hours: calcium ionophore A23187 was used at a concentration of 1 μm.
After 5 hours in culture, the culture medium for each well was recovered, centrifuged at 3000 rpm and stored at −80° C.
The production of prostaglandin 6KF1α for each of the tests was measured using a EUROMEDEX Elisa Kit.
Results are expressed as the percentage activity/stimulated control.

[1] = tested on: murine melanome cell line B16-F10; assay: melanin synthesis, colorimetric assay, basal and after α-MSH; format: cell-based; settings: Mus musculus, alpha MSH 1 μM, read-out: inhibition of alpha MSH activity (melanin increase)
Experimental: The modulating effect of unsaturated fatty hydroxy acid derivatives on melanogenesis was analysed. To do this, measurement of melanin synthesis by colorimetric assay was performed on a murine melanome cell line: line B16-F10.
The effect of products was investigated in a basal situation and after stimulation by α-MSH in order to determine depigmenting capacity.
Levels of extracellular and intracellular melanin were measured by spectrophotometry at a wavelength of 405 nm according to the protocol described by Anob et al., 1999. The amount of pigment was determined using a standard melanin range and analysis on Microwin software (Berthold Biotechnologies). A total protein assay was carried out for intracellular melanin samples by means of the BCA-Copper method at 540 nm. The standard range was made up using standard protein BSA (Bovine Serum Albumin).

[2] = tested on: intracellular AOSs, fibroblast line L929; assay: in vitro assay of intracellular AOSs (H2DCF-DA probe) after H2O2/iron oxidative stress; format: cell-based, murin; settings: pre-incubation 3 h
Description: We set up an in vitro study model of oxidative stress induced by H2O2/iron as H2O2 generates huge amounts of intracellular AOSs as a result of a chain reaction triggered by oxidation of membrane lipids.
This technique is based on the use of a fluorescent probe, 6-carboxy-2′,7′-dichlorodihydro fluorescein diacetate, di (acetoxymethyl ester) (H2DCF-DA) which once it penetrates into the cell is deacetylated by intracellular esterases and thus forms H2DCF. This product is oxidized by intracellular AOSs into a highly fluorescent compound: 2′,7′-dichlorofluorescein (DCF) (Suematsu M et al., 1996, Free Radicals Practical Approach, Punchard ed. P 83-99).
The materials and methods used for in vitro assay of intracellular AOSs are given below. • a) Cell tool • Cutaneous murin fibroblast cell line L929. • b) Materials • 96 well flat based microplate. • Cytofluor II cytofluorameter: Ref. PERCEPTIVE BIOSYSTEMS. • c) Reagents • Cell culture reagents: • Dulbecco's Modified Eagle Medium as the culture medium (DMEM) • Foetal calf serum • Phosphate buffer PBS pH 7.4 • Trypsin EDTA (1X) Fluorescent probe • 6-carboxy-2′,7′-dichlorodihydrofluorescein diacetate, di(acetoxymethyl ester) (PM.675,43) Cell stimulation products • Hydrogen peroxide (H2O2) 3% Ref. GIFRER (Gifrer Barbezat Laboratory) • Ferrous ammonium sulphate (Fe^2+) • Ferric ammonium sulphate (Fe^3+) • d) Products tested:
For the evaluation of unsaturated fatty hydroxy acid derivatives, the dilutions are prepared in freshly prepared culture medium for a concentration range of 0.02, 0.2, 2 and 20 ng/ml. • e) Protocol. Cell culturing.
Cells from the fibroblast line L929 were cultured in 96-well flat base microplates in 100 μl of DMEM supplemented with 10% foetal calf serum. These were incubated overnight at 37° C. in a humid atmosphere at 5% CO2. The blank plate without cells was evaluated using 6 wells.
Dilutions of the products to be tested and reference molecule were made up in culture medium without foetal calf serum then deposited in 7 wells at a rate of 100 μl per well.
Cells were then incubated for 3 hours at 37° C. in a humid atmosphere at 5% CO2.
Cells were rinsed in PBS 1X at a rate of 100 μl per well. They were then incubated for 30 minutes at 37° C. in a humid atmosphere at 5% CO2 with 50 μl of the H2DCF-DA probe at 5 μM.
After 30 minutes of contact with the probe alone, cells were incubated for 30 minutes at 37° C. in a humid atmosphere at 5% CO2 with the addition of 25 μl of H2O2 at 800 μM and 25 μl of ferrous iron and ferric iron solution at 8 mM in order to obtain final concentrations of 200 μM of H2O2 and 2 mM of ferrous iron and ferric iron.
Cells were then rinsed with PBS 1X at a rate of 100 μl per well then incubated for 30 minutes at 37° C. in a humid atmosphere at 5% CO2 with 100 μl of PBS 1X.
This incubation for 1 h 30 minutes at 37° C. allows intracellular esterases to deacetylate the probe into H2DCF which can be oxidized by the intracellular AOSs into DCF: a fluorescent compound whose formation is proportional to the quantity of intracellular AOSs.
The intensity of fluorescence is read on a cytofluorimeter at λexcitation=485 nm and λemission=530 nm. This reflects the amount of intracellular AOS produced.
The ratio below makes it possible to calculate the % protection against the production of intracellular AOSs for each product concentration tested (because the intensity of fluorescence or IF reflects the release of intracellular AOSs)
• Pre-incubation: 3 h • Number of tests=3 for all compounds. • Number of tests=18 for vit. E

[3] = tested on: membrane lipids, fibroblast line L929; assay: TBARS test, lipid peroxidation after H2O2/Fe2+/Fe3+; format: cell-based, murin; settings: 0.02 ng/ml, pretreated 16 hours
Description: In order to evaluate membrane changes, we measured lipid peroxidation by in vitro assay of complexes between the products of lipid oxidation and thiobarbituric acid. These complexes are called TBARS (thiobarbituric acid reactive substances) and give the test its name: TBARS Test.
In order to mimic chemical oxidative stress, we treated a fibroblast line (L929) with a complex consisting of hydrogen peroxide (H2O2) and iron (Fe^2+/Fe^3+) thus reconstituting the Fenton reaction which is the source of oxygenated free radicals and particularly the hydroxyl radical (OH°) (D. A Vessey et al. 1992): H2O2+Fe^2+→OH°+OH^−+Fe^3+
The products were evaluated on a murin fibroblast line L929. Cells were pretreated with different concentrations of the product for 16 hours and were then stimulated with the H2O2/Fe^2+/Fe^3+ complex (200 μM−1 mM) for 1 hour. • Stock solutions: 100 mg/ml ethanol, 4° C. • Final solutions: 0.02 ng/ml.
Peroxidation of membrane lipids was analysed by measuring TBARS (Protocol ref. PLN°2, according to Morliere et al, 1991).
[…]. TBARS assays are therefore expressed in pmole/μg of protein. Proteins and TBARS are assayed in the intracellular medium.
Using the TBARS calculation in pmole/μg protein, we calculated the protective efficacy of various products against the oxidation of lipid membranes.
Four separate experiments were carried out. Several compounds were evaluated in the course of these experiments (the test only allows 10 molecules to be evaluated at one time). The compounds were evaluated several times and were chosen as a function of the results obtained in another test which also measured anti-radical activity (assay test for activated oxygen species).
The model used in this experiment (Fenton reaction) triggers considerable lipid peroxidation of the L929 fibroblasts. This massive release of the hydroxyl radical OH° thus generates oxidative stress in the cells, particularly in the membranes. However, in this type of oxidative reaction, the products resulting from lipid peroxidation are internalized in the cells and TBARS are therefore assayed in the intracellular medium.

FATP4 = assay: keratinocyte differentiation, real-time RT-PCR of FATP4 transcripts; format: cell-based, human; settings: NHK, 48 hours
Experimental: (§1) Normal human keratinocytes (NHK) proliferate and differentiate in vitro, forming stratified layers which mimic the basal organisation of the skin. Extracellular calcium concentrations in excess of 0.1 mM initiate a cascade of genome and non-genome events which take the keratinocytes from a proliferative phase towards a differentiation phase. Keratinocyte differentiation can then be evaluated by studying the expression of several markers such as keratins 1 and 10, transglutaminase 1, desaturase DES2, involucrine, FATP4 and ABCG1 transporters. We therefore evaluated the effect of certain hydroxyalcene carboxylic acids in an in vitro culture model.
(§2) Normal human keratinocytes are isolated from skin explants. They are cultured in KSFM medium (Gibco) with a low calcium content (0.1 mM) containing 25 μg/ml of BPE (bovine pituitary extract) and […] of EGF (epithelium growth factor). 24 hours after culturing, differentiation is triggered by the addition of calcium (final concentration 1.2 mM). The active ingredients are added or not at the same time as calcium at concentrations of 100 and 1 μg/ml in order to determine whether or not they have a potentialising effect on differentiation. Cells were then analysed 48 hours after the addition of calcium and these products.
(§3) Total RNA was extracted under cold conditions from keratinocytes.
(§4) After reverse transcription of mRNA into cDNA, PCRs were made up in 96 well plates (iCycler quantitative PCR apparatus, BioRad). Expression of transcripts of transglutaminase, desaturase (DES2), ABCG1 and FATP4 were standardized with respect to the expression of reference genes (GAPDH, UBC, HPRT).

transglutaminase 1 (TG1) = assay: keratinocyte differentiation, real-time RT-PCR of transglutaminase 1 transcripts; format: cell-based, human; settings: NHK, 48 hours
Experimental: as §1, §2, §3, §4

desaturase DES2 = assay: keratinocyte differentiation, real-time RT-PCR of DES2 transcripts; format: cell-based, human; settings: NHK, 48 hours
Experimental: as §1, §2, §3, §4

ABCG1 = assay: keratinocyte differentiation, real-time RT-PCR of ABCG1 transcripts; format: cell-based, human; settings: NHK, 48 hours
Experimental: as §1, §2, §3, §4

[4] = tested on: membrane lipids, fibroblast line L929; assay: TBARS test, lipid peroxidation after H2O2/Fe2+/Fe3+; format: cell-based, murin; settings: 400 μg/ml

O=C(O)/C=C/CCCCCCCCCO [n=8, R=H, Rn=H, R1=H, 12-hydroxy-dodeca-2t-enoic acid]
% inhibition of IL-8 release (Interleukin 8): Non-active
% inhibiting activity of evaluated molecules on the production of PG6KF1α Inflammation (prostaglandin 6KF1α): 32%

Oc1ccc(O)cc1 [hydroquinone]
inhibition at 1 µg/mL ([1]; 1 μg/ml): 60%

O=C(O)C(F)=CCCCCCCCCCO [n=8, R=H, Rn=H, R1=F, 12-hydroxy-dodeca-2-fluoro-2-enoic acid]
% inhibition of IL-8 release (Interleukin 8): Non-active
% inhibiting activity of evaluated molecules on the production of PG6KF1α Inflammation (prostaglandin 6KF1α): 44%

O=C(O)C(F)=CCCCCCCCO [n=6, R=H, Rn=H, R1=F, 10-hydroxy-dec-2-fluoro-2 enoic acid]
inhibition at 20 pg/mL ([2]; Mus musculus, 0.02 ng/ml, L929, read-out: Percentage inhibition of the intracellular production of AOS): 15%
inhibition at 0.0002 µg/mL ([2]; Mus musculus, 0.2 ng/ml, L929, read-out: Percentage inhibition of the intracellular production of AOS): 4%
inhibition at 0.002 µg/mL ([2]; Mus musculus, 2 ng/ml, L929, read-out: Percentage inhibition of the intracellular production of AOS): 5%
inhibition at 0.02 µg/mL ([2]; Mus musculus, 20 ng/ml, L929, read-out: Percentage inhibition of the intracellular production of AOS): -9%
% membrane lipid protection, Mean [3]: 40.65%
Induction Factor vs Control (CaCl2 1.2 mM) FATP4 (FATP4; 1 μg/ml): 1.0
Induction Factor vs Control (CaCl2 1.2 mM) FATP4 (FATP4; 100 μg/ml): 1.9
Induction Factor vs Control (CaCl2 1.2 mM) TG1 (transglutaminase 1 (TG1); 1 μg/ml): 1.2
Induction Factor vs Control (CaCl2 1.2 mM) TG1 (transglutaminase 1 (TG1); 100 μg/ml): 7.8
Induction Factor vs Control (CaCl2 1.2 mM) DES2 (desaturase DES2; 1 μg/ml): 1.3
Induction Factor vs Control (CaCl2 1.2 mM) DES2 (desaturase DES2; 100 μg/ml): 10.3
Induction Factor vs Control (CaCl2 1.2 mM) ABCG1 (ABCG1; 1 μg/ml): 1.3
Induction Factor vs Control (CaCl2 1.2 mM) ABCG1 (ABCG1; 100 μg/ml): 6.3

Cc1c(C)c2c(c(C)c1O)CC[C@@](C)(CCC[C@H](C)CCC[C@H](C)CCCC(C)C)O2 [Vit. E, alphatocopherol]
Percentage inhibition of the intracellular production of AOS ([2]; 400 μg/ml, L929, 18 tests): Vit. E 400 μg/ml 47%
% membrane lipid protection, Mean [4]: 44.66%
% membrane lipid protection, Mean ([4]; listed as Vitamin E): protects cell membranes very effectively

O=C1O[C@H]([C@@H](O)CO)C(O)=C1O [vitamin C]
inhibition at 40 µg/mL ([1]; 40 μg/ml): 60%
